Source: paper PMC8800111 (The Journal of Biological Chemistry, 2021)

Experiments:
Assay type in all cases: cell-based
[1] = molecular target: proteins of U3A human fibrosarcoma cells (4462 proteins detected) (Homo sapiens, UniProt O00330); conditions: protein PDHX; U3A cells
[2] = molecular target: proteins of U3A human fibrosarcoma cells (4462 proteins detected) (Homo sapiens, UniProt O60462); conditions: protein NRP2; soluble abundance after heat, U3A cells
[3] = molecular target: proteins of U3A human fibrosarcoma cells (4462 proteins detected) (Homo sapiens, UniProt O94992); conditions: protein HEXIM1, U3A cells
[4] = molecular target: proteins of U3A human fibrosarcoma cells (4462 proteins detected) (Homo sapiens, UniProt O95983); conditions: protein MBD3; U3A cells
[5] = molecular target: proteins of U3A human fibrosarcoma cells (4462 proteins detected) (Homo sapiens, UniProt P20700); conditions: protein LMNB1; soluble abundance after heat, U3A cells
[6] = molecular target: proteins of U3A human fibrosarcoma cells (4462 proteins detected) (Homo sapiens, UniProt P23396); conditions: protein RPS3; soluble abundance after heat, U3A cells
[7] = molecular target: proteins of U3A human fibrosarcoma cells (4462 proteins detected) (Homo sapiens, UniProt P24666); conditions: protein ACP1, U3A cells
[8] = molecular target: proteins of U3A human fibrosarcoma cells (4462 proteins detected) (Homo sapiens, UniProt P26038); conditions: protein MSN, U3A cells
[9] = molecular target: proteins of U3A human fibrosarcoma cells (4462 proteins detected) (Homo sapiens, UniProt P27824); conditions: protein CANX; soluble abundance after heat, U3A cells
[10] = molecular target: proteins of U3A human fibrosarcoma cells (4462 proteins detected) (Homo sapiens, UniProt P41229); conditions: protein KDM5C; U3A cells
[11] = molecular target: proteins of U3A human fibrosarcoma cells (4462 proteins detected) (Homo sapiens, UniProt P78371); conditions: protein CCT2; U3A cells
[12] = molecular target: proteins of U3A human fibrosarcoma cells (4462 proteins detected) (Homo sapiens, UniProt Q01518); conditions: protein CAP1; U3A cells
[13] = molecular target: proteins of U3A human fibrosarcoma cells (4462 proteins detected) (Homo sapiens, UniProt Q14790); conditions: protein CASP8; U3A, 10 μM, 2 h
[14] = molecular target: proteins of U3A human fibrosarcoma cells (4462 proteins detected) (Homo sapiens, UniProt Q15468); conditions: protein STIL; U3A, 10 μM, 2 h
[15] = molecular target: proteins of U3A human fibrosarcoma cells (4462 proteins detected) (Homo sapiens, UniProt Q49AR2); conditions: protein C5orf22, U3A cells
[16] = molecular target: proteins of U3A human fibrosarcoma cells (4462 proteins detected) (Homo sapiens, UniProt Q6V1X1); conditions: protein DPP8; U3A cells
[17] = molecular target: proteins of U3A human fibrosarcoma cells (4462 proteins detected) (Homo sapiens, UniProt Q8IXQ4); conditions: protein GPALPP1, U3A cells
[18] = molecular target: proteins of U3A human fibrosarcoma cells (4462 proteins detected) (Homo sapiens, UniProt Q8NFI3); conditions: protein ENGASE; soluble abundance after heat, U3A cells
[19] = molecular target: proteins of U3A human fibrosarcoma cells (4462 proteins detected) (Homo sapiens, UniProt Q8TDN6); conditions: protein BRIX1; U3A cells
[20] = molecular target: proteins of U3A human fibrosarcoma cells (4462 proteins detected) (Homo sapiens, UniProt Q92572); conditions: protein AP3S1; U3A cells
[21] = molecular target: proteins of U3A human fibrosarcoma cells (4462 proteins detected) (Homo sapiens, UniProt Q99633); conditions: protein PRPF18; U3A cells
[22] = molecular target: proteins of U3A human fibrosarcoma cells (4462 proteins detected) (Homo sapiens, UniProt Q9BVW5); conditions: protein TIPIN, U3A cells
[23] = molecular target: proteins of U3A human fibrosarcoma cells (4462 proteins detected) (Homo sapiens, UniProt Q9BYG3); conditions: protein NIFK; soluble abundance after heat, U3A cells
[24] = molecular target: proteins of U3A human fibrosarcoma cells (4462 proteins detected) (Homo sapiens, UniProt Q9H871); conditions: protein RMND5A; U3A cells
[25] = molecular target: proteins of U3A human fibrosarcoma cells (4462 proteins detected) (Homo sapiens, UniProt Q9NPD8); conditions: protein UBE2T; soluble abundance after heat, U3A cells
[26] = molecular target: proteins of U3A human fibrosarcoma cells (4462 proteins detected) (Homo sapiens, UniProt Q9NVU7); conditions: protein SDAD1; soluble abundance after heat, U3A cells
[27] = molecular target: proteins of U3A human fibrosarcoma cells (4462 proteins detected) (Homo sapiens, UniProt Q9NYJ1); conditions: protein COA4; U3A cells
[28] = molecular target: proteins of U3A human fibrosarcoma cells (4462 proteins detected) (Homo sapiens, UniProt Q9UEY8); conditions: protein ADD3; U3A cells
[29] = molecular target: proteins of U3A human fibrosarcoma cells (4462 proteins detected) (Homo sapiens, UniProt Q9Y266); conditions: protein NUDC; U3A cells
[30] = molecular target: proteins of U3A human fibrosarcoma cells (4462 proteins detected) (Homo sapiens, UniProt Q9Y6H1); conditions: protein CHCHD2; CHCHD2P9; U3A, 10 μM, 2 h
Chain of proteins of U3A human fibrosarcoma cells (4462 proteins detected) (Homo sapiens, UniProt Q9Y6H1) (Q9Y6H1 whole entry): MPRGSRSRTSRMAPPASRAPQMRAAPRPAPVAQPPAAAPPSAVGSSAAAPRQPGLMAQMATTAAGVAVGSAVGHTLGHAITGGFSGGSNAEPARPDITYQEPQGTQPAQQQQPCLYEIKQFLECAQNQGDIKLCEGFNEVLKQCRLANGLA

Chain of proteins of U3A human fibrosarcoma cells (4462 proteins detected) (Homo sapiens, UniProt O95983) (O95983 whole entry): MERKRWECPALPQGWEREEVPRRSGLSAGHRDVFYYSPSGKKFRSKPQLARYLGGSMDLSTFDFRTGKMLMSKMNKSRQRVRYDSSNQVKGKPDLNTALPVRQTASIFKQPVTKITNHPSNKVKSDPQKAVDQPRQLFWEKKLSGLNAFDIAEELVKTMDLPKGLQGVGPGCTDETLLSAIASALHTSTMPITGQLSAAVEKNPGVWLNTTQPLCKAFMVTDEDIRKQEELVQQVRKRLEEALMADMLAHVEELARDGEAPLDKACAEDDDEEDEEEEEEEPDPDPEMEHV
Chain of proteins of U3A human fibrosarcoma cells (4462 proteins detected) (Homo sapiens, UniProt P78371) (P78371 whole entry): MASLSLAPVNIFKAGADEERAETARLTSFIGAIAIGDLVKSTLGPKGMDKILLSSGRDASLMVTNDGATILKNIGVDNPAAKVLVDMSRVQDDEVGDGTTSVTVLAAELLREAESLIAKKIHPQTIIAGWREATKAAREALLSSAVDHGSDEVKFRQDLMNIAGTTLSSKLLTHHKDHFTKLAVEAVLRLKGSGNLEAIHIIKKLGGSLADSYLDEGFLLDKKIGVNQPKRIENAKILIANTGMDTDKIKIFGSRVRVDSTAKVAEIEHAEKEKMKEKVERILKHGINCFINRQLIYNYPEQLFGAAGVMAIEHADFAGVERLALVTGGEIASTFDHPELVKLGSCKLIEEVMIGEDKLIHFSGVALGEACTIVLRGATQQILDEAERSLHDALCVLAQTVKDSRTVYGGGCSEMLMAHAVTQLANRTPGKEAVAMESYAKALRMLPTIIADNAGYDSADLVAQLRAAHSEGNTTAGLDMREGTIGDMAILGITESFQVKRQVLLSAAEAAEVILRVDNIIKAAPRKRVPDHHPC
Chain of proteins of U3A human fibrosarcoma cells (4462 proteins detected) (Homo sapiens, UniProt Q8NFI3) (Q8NFI3 whole entry): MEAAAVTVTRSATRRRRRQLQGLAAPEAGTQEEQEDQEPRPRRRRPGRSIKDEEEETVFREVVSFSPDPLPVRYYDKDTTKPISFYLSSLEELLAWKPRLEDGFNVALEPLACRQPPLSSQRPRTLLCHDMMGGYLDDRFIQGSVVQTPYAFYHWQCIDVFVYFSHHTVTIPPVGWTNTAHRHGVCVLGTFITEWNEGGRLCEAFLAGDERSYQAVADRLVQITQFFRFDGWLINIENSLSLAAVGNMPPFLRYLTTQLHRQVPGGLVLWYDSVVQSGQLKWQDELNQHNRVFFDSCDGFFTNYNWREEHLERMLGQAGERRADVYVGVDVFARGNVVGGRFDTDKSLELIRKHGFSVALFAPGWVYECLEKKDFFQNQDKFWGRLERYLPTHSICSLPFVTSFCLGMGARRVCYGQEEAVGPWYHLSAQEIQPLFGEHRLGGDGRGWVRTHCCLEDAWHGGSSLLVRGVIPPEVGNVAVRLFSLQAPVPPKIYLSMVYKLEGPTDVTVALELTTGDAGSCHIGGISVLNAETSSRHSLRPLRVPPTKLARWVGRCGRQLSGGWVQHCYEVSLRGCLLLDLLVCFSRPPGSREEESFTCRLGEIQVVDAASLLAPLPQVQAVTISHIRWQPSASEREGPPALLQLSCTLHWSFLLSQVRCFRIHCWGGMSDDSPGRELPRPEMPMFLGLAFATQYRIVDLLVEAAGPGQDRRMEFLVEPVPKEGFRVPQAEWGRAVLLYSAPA
Chain of proteins of U3A human fibrosarcoma cells (4462 proteins detected) (Homo sapiens, UniProt Q9UEY8) (Q9UEY8 whole entry): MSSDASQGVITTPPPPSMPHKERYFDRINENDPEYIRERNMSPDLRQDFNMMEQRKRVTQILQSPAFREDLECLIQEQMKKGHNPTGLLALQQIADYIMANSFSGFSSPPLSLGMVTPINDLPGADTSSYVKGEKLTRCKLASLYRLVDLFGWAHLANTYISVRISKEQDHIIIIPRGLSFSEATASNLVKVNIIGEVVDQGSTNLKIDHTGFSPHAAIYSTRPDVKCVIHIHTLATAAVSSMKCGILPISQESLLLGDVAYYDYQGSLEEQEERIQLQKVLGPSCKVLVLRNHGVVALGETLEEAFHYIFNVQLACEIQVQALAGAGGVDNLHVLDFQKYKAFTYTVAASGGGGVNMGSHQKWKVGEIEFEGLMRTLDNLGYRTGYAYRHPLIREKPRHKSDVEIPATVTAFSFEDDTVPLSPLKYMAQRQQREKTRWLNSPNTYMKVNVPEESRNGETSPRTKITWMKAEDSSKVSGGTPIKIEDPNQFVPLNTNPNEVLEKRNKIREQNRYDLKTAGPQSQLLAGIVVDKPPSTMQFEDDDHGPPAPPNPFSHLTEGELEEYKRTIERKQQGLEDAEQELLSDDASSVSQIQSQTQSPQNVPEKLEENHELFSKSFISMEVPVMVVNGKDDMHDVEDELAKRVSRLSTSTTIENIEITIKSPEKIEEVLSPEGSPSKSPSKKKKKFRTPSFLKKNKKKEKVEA
Chain of proteins of U3A human fibrosarcoma cells (4462 proteins detected) (Homo sapiens, UniProt Q99633) (Q99633 whole entry): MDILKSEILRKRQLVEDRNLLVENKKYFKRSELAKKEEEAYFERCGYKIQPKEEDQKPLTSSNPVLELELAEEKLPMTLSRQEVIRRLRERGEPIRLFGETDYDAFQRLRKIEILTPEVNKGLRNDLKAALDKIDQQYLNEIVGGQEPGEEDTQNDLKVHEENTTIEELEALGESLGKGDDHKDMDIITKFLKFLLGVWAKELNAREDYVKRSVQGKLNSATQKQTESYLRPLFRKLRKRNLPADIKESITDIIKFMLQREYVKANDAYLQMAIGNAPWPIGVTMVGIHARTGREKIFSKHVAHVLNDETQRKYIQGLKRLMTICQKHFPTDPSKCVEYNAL
Chain of proteins of U3A human fibrosarcoma cells (4462 proteins detected) (Homo sapiens, UniProt Q6V1X1) (Q6V1X1 whole entry): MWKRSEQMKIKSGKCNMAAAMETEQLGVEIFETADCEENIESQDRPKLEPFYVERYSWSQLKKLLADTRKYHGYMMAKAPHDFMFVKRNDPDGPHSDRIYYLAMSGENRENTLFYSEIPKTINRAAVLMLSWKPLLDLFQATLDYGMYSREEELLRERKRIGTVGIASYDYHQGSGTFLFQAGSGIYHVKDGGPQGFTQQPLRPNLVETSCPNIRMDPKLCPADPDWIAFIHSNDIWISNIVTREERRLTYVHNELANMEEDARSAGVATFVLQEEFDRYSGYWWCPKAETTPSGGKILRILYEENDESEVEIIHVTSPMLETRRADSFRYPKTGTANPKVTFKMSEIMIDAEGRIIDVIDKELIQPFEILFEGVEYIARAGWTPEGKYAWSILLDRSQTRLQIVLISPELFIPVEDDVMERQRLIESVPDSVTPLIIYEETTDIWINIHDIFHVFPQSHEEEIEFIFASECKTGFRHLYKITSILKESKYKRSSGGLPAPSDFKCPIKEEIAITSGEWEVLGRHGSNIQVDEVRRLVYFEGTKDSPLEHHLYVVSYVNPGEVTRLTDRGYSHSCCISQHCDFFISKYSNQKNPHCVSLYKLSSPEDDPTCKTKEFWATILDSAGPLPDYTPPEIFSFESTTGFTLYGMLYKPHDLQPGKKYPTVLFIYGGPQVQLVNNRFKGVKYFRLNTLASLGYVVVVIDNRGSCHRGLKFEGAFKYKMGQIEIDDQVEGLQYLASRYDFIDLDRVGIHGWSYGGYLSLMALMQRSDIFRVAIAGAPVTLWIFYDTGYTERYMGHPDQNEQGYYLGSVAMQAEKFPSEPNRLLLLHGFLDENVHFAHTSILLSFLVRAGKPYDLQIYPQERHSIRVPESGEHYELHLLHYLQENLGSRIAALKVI
Chain of proteins of U3A human fibrosarcoma cells (4462 proteins detected) (Homo sapiens, UniProt Q9H871) (Q9H871 whole entry): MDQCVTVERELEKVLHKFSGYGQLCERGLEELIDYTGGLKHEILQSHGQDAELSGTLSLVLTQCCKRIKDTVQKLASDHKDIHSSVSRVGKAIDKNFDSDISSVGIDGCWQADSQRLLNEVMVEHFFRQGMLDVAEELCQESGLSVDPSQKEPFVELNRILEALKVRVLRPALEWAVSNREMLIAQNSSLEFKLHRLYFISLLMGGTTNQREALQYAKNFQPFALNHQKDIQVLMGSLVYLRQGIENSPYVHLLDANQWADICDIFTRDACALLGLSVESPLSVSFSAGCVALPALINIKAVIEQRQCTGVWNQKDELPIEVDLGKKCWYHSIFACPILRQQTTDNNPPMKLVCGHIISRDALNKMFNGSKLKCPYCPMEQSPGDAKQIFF
Chain of proteins of U3A human fibrosarcoma cells (4462 proteins detected) (Homo sapiens, UniProt Q9BVW5) (Q9BVW5 whole entry): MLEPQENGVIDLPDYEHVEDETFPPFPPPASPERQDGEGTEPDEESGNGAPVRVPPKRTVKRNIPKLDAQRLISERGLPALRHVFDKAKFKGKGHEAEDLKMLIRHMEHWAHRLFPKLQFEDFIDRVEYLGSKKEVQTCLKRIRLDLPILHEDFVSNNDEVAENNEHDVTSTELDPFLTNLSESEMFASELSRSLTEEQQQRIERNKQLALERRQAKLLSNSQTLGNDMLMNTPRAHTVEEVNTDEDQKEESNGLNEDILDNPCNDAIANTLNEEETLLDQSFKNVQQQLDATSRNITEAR
Chain of proteins of U3A human fibrosarcoma cells (4462 proteins detected) (Homo sapiens, UniProt P27824) (P27824 21-592): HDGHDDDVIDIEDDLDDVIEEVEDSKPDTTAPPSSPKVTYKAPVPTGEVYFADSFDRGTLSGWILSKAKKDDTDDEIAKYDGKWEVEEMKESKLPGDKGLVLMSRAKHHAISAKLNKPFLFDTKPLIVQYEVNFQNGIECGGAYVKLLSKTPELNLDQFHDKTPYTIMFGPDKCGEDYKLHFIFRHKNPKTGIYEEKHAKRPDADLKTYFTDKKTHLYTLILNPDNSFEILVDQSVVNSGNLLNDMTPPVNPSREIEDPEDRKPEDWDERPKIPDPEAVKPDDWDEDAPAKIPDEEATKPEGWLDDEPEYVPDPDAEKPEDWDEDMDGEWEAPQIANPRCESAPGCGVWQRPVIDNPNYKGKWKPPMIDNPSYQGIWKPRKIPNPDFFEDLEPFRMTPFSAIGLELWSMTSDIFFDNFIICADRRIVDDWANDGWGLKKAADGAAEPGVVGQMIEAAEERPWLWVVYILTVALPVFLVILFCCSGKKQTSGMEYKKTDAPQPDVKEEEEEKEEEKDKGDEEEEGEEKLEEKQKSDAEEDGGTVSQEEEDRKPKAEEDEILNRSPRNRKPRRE

## CCc1nc(N)nc(N)c1-c1ccc(Cl)cc1 [pyrimethamine]
[1]
  Log2 (PYR/DMSO): 0.19
[2]
  Log2 (PYR/DMSO): 0.14
[3]
  Log2 (PYR/DMSO): -0.04
[4]
  Log2 (PYR/DMSO): 0.16
[5]
  Log2 (PYR/DMSO): 0.15
[6]
  Log2 (PYR/DMSO): 0.13
[7]
  Log2 (PYR/DMSO): -0.04
[8]
  Log2 (PYR/DMSO): -0.04
[9]
  Log2 (PYR/DMSO): 0.14
[10]
  Log2 (PYR/DMSO): 0.18
[11]
  Log2 (PYR/DMSO): 0.17
[12]
  Log2 (PYR/DMSO): 0.20
[13]
  Log2 (PYR/DMSO), CASP8: 0.34
[14]
  Log2 (PYR/DMSO), STIL: 0.35
[15]
  Log2 (PYR/DMSO): -0.04
[16]
  Log2 (PYR/DMSO): 0.16
[17]
  Log2 (PYR/DMSO): -0.04
[18]
  Log2 (PYR/DMSO): 0.15
[19]
  Log2 (PYR/DMSO): 0.20
[20]
  Log2 (PYR/DMSO): 0.18
[21]
  Log2 (PYR/DMSO): 0.16
[22]
  Log2 (PYR/DMSO): -0.03
[23]
  Log2 (PYR/DMSO): 0.14
[24]
  Log2 (PYR/DMSO): 0.21
[25]
  Log2 (PYR/DMSO): 0.13
[26]
  Log2 (PYR/DMSO): 0.15
[27]
  Log2 (PYR/DMSO): 0.18
[28]
  Log2 (PYR/DMSO): 0.16
[29]
  Log2 (PYR/DMSO): 0.16
[30]
  Log2 (PYR/DMSO), CHCHD2; CHCHD2P9: 0.36
